One block for each compound: values may come before it. Active and inactive are the calls of the source. The rule behind the calls is not given here.
Key:
Dipeptidyl peptidase 4 = Dipeptidyl peptidase 4 (Homo sapiens, UniProt P27487); experiment: Inhibition of DPP4
Dipeptidyl peptidase 2 = Dipeptidyl peptidase 2 (Homo sapiens, UniProt Q9UHL4); experiment: Inhibition of DPP2
Dipeptidyl peptidase 9 = Dipeptidyl peptidase 9 (Homo sapiens, UniProt Q86TI2); experiment: Inhibition of DPP9
Dipeptidyl peptidase 8 = Dipeptidyl peptidase 8 (Homo sapiens, UniProt Q6V1X1); experiment: Inhibition of DPP8
Sequence of Dipeptidyl peptidase 8 (Q6V1X1 whole entry): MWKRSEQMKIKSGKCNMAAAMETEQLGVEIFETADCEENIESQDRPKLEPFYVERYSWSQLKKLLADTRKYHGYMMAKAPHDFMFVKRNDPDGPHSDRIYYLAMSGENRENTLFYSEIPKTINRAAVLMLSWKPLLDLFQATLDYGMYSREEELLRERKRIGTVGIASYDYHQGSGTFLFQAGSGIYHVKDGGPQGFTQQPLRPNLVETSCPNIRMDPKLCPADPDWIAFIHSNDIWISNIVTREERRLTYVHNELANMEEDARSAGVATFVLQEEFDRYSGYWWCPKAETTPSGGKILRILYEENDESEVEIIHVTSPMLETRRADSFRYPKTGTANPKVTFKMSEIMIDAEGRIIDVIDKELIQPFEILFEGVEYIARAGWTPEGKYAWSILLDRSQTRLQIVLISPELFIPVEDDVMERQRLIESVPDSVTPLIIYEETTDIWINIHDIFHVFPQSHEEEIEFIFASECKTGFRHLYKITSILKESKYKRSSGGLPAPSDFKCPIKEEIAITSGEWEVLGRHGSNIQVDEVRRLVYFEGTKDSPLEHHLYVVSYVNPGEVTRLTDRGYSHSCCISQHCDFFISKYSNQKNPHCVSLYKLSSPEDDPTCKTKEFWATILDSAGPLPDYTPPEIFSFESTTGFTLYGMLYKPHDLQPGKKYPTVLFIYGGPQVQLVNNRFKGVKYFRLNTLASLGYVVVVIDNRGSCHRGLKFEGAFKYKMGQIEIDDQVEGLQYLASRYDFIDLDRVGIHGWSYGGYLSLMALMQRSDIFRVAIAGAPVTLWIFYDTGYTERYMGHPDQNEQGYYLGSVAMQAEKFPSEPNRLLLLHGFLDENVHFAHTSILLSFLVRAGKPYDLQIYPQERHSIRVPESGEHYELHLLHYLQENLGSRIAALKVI

Sequence of Dipeptidyl peptidase 9 (Q86TI2 whole entry): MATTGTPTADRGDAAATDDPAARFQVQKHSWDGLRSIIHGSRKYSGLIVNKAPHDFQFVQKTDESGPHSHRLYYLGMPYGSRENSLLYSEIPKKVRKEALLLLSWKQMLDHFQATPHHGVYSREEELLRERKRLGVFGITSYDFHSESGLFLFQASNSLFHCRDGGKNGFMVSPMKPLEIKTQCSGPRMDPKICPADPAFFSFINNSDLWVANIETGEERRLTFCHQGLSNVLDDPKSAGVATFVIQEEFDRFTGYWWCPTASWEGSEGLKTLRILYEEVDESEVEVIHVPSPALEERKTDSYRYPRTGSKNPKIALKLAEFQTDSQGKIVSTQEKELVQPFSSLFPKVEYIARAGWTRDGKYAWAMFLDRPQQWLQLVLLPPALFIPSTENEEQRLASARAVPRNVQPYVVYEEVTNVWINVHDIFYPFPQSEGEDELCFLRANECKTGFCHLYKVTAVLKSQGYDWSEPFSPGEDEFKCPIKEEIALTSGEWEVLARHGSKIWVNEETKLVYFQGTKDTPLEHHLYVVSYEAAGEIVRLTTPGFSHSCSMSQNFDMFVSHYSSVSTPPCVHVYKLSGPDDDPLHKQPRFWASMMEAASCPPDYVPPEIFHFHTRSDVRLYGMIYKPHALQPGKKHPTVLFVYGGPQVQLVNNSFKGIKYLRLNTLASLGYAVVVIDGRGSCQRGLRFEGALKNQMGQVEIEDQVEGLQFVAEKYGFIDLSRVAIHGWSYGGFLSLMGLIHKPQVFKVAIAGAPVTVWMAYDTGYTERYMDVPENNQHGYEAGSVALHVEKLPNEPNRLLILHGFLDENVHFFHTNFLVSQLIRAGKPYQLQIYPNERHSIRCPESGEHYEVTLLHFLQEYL

IC50 (Dipeptidyl peptidase 4): > 100 µM
IC50 (Dipeptidyl peptidase 9): > 100 µM
IC50 (Dipeptidyl peptidase 8): > 100 µM
IC50 (Dipeptidyl peptidase 2): 12.6 µM
SMILES: CC[C@@H](C)[C@H](N)C(=O)N1Cc2ccc(C(F)(F)F)cc2C1

IC50 (Dipeptidyl peptidase 4): > 100 µM
IC50 (Dipeptidyl peptidase 9): > 100 µM
IC50 (Dipeptidyl peptidase 8): > 100 µM
IC50 (Dipeptidyl peptidase 2): 13 µM
SMILES: CC[C@H](C)[C@H](N)C(=O)N1Cc2ccc(C(F)(F)F)cc2C1

IC50 (Dipeptidyl peptidase 4): > 100 µM
SMILES: CC[C@H](C)[C@H](N)C(=O)N1Cc2ccc(Br)cc2C1

IC50 (Dipeptidyl peptidase 4): > 100 µM
IC50 (Dipeptidyl peptidase 9): > 50 µM
IC50 (Dipeptidyl peptidase 8): > 25 µM
IC50 (Dipeptidyl peptidase 2): 2.6 µM
SMILES: CC[C@H](C)[C@H](N)C(=O)N1Cc2ccc(I)cc2C1

IC50 (Dipeptidyl peptidase 4): > 100 µM
IC50 (Dipeptidyl peptidase 8): > 100 µM
IC50 (Dipeptidyl peptidase 2): > 50 µM
SMILES: CC[C@H](C)[C@H](N)C(=O)N1Cc2ccc(N=[N+]=[N-])cc2C1

IC50 (Dipeptidyl peptidase 4): > 100 µM
SMILES: CC[C@H](C)[C@H](N)C(=O)N1Cc2ccc(C)cc2C1

IC50 (Dipeptidyl peptidase 4): > 100 µM
IC50 (Dipeptidyl peptidase 9): > 100 µM
IC50 (Dipeptidyl peptidase 8): > 100 µM
IC50 (Dipeptidyl peptidase 2): > 100 µM
SMILES: CC[C@H](C)[C@H](N)C(=O)N1Cc2ccc(C(C)(C)C)cc2C1

IC50 (Dipeptidyl peptidase 4): > 100 µM
SMILES: CC[C@@H](C)[C@H](N)C(=O)N1Cc2cccc(F)c2C1

IC50 (Dipeptidyl peptidase 4): > 50 µM
IC50 (Dipeptidyl peptidase 9): > 25 µM
IC50 (Dipeptidyl peptidase 8): > 50 µM
IC50 (Dipeptidyl peptidase 2): 66 µM
SMILES: CC[C@H](C)[C@H](N)C(=O)N1Cc2ccc([N+](=O)[O-])cc2C1

IC50 (Dipeptidyl peptidase 4): > 100 µM
SMILES: CC[C@@H](C)[C@H](N)C(=O)N1Cc2ccc(C)cc2C1

Second part, the compound before the results:

SMILES: N[C@@H](CCCCNC(=O)OCc1ccccc1)C(=O)N1Cc2ccccc2C1
IC50 (Dipeptidyl peptidase 4): 245 µM
IC50 (Dipeptidyl peptidase 2): 2.5 µM

SMILES: N[C@@H](CCCCNc1ccc2ccccc2c1)C(=O)N1Cc2ccccc2C1
IC50 (Dipeptidyl peptidase 4): 178 µM

SMILES: O=C([C@@H]1C[C@H](Nc2cccc3ccccc23)CN1)N1Cc2ccccc2C1
IC50 (Dipeptidyl peptidase 4): 4.97 µM

SMILES: CC[C@H](C)[C@H](N)C(=O)N1Cc2cccc(F)c2C1
IC50 (Dipeptidyl peptidase 4): > 100 µM

SMILES: N[C@@H](CCCCN(Cc1ccccc1)Cc1ccccc1)C(=O)N1Cc2ccccc2C1
IC50 (Dipeptidyl peptidase 4): > 62.5 µM

SMILES: NCCCC[C@H](N)C(=O)N1Cc2ccccc2C1
IC50 (Dipeptidyl peptidase 4): 161 µM

SMILES: O=C([C@@H]1C[C@@H](N(Cc2ccccc2)Cc2ccccc2)CN1)N1Cc2ccccc2C1
IC50 (Dipeptidyl peptidase 4): > 500 µM
IC50 (Dipeptidyl peptidase 9): > 25 µM
IC50 (Dipeptidyl peptidase 2): 4.5 µM

SMILES: O=C([C@@H]1C[C@@H](Nc2ccc3ccccc3c2)CN1)N1Cc2ccccc2C1
IC50 (Dipeptidyl peptidase 4): > 250 µM

SMILES: O=C([C@@H]1C[C@H](N(c2ccc3ccccc3c2)c2ccc3ccccc3c2)CN1)N1Cc2ccccc2C1
IC50 (Dipeptidyl peptidase 2): > 100 µM

SMILES: O=C([C@@H]1C[C@H](NCc2ccccc2)CN1)N1Cc2ccccc2C1
IC50 (Dipeptidyl peptidase 4): > 250 µM

SMILES: N[C@@H](CCCCN(c1ccc2ccccc2c1)c1ccc2ccccc2c1)C(=O)N1Cc2ccccc2C1
IC50 (Dipeptidyl peptidase 4): > 31.2 µM

SMILES: N[C@@H](CCCCNCc1ccccc1)C(=O)N1Cc2ccccc2C1
IC50 (Dipeptidyl peptidase 4): > 50 µM

SMILES: CC[C@H](C)[C@H](N)C(=O)N1Cc2cccc(C)c2C1
IC50 (Dipeptidyl peptidase 4): > 100 µM
IC50 (Dipeptidyl peptidase 9): > 100 µM
IC50 (Dipeptidyl peptidase 8): > 100 µM
IC50 (Dipeptidyl peptidase 2): > 100 µM

SMILES: O=C([C@@H]1C[C@H](Nc2ccc3ccccc3c2)CN1)N1Cc2ccccc2C1
IC50 (Dipeptidyl peptidase 4): > 100 µM

SMILES: O=C([C@@H]1C[C@H](N(c2cccc3ccccc23)c2cccc3ccccc23)CN1)N1Cc2ccccc2C1
Activity (Dipeptidyl peptidase 4): inactive

SMILES: N[C@H]1CN[C@H](C(=O)N2Cc3ccccc3C2)C1
IC50 (Dipeptidyl peptidase 4): > 500 µM

SMILES: CC[C@H](C)[C@H](N)C(=O)N1Cc2cccnc2C1
IC50 (Dipeptidyl peptidase 4): > 100 µM
IC50 (Dipeptidyl peptidase 2): > 100 µM

SMILES: O=C([C@@H]1C[C@@H](NCc2ccccc2)CN1)N1Cc2ccccc2C1
IC50 (Dipeptidyl peptidase 4): > 1000 µM

— ChEMBL document CHEMBL1154996, “Inhibitors of dipeptidyl peptidase 8 and dipeptidyl peptidase 9. Part 2: isoindoline containing inhibitors” (Bioorg Med Chem Lett, 2008)
